Experimental data published in patent publication US20260077055A1, “COMPOSITIONS OF POLYPLEXES AND SAPONINS” (SAPREME TECHNOLOGIES B.V., priority 2022, published 2026).

Tested on: EGFR-A2058 cells
Experiment: Cell viability (MTS) after polyplex transfection of A2058 cells
Type: cell-based
Settings: co-administered with PAMAM G5(PEG-N3)6.2 npSaporin polyplexes; 73 nM Cetuximab-SO1861 or 4 μM SO1861-EMCH; 72 h
Experimental: Spectrophotometry: Concentrations were determined using either a Thermo Nanodrop 2000 spectrometer or Perkin Elmer Lambda 365 Spectrophotometer. DLS measurements: DLS measurements were performed on a Malvern Nano ZS (Malvern Instruments, U.K.), operating at 633 nm with a 173° scattering angle, at 25 or 37° C. DLS mean diameters were obtained from the intensity particle size distribution provided by Malvern Zetasizer Software. DLS histograms were obtained from the intensity particle size distributions. […] Infrared Spectroscopy: FT-IR spectra were recorded on a Bruker Vertex 70v, equipped with a RockSolid interferometer, after preparing the samples (1-2 mg) as KBr pellets. […] NMR Spectroscopy: 1H NMR spectra were recorded on a 11.7 T Bruker DRX-500 spectrometer. […] Experiments were recorded acquiring 64-512 scans, with a pre-scan delay (d1) of 12 s, and an acquisition time (aq) of 4 s at 300 K. 13C NMR spectrum was recorder on a 9.39 T Varian Innova 400 spectrometer. […] After treatment, the cells were incubated for 72 hr at 37° C. before the cell viability was determined by a MTS-assay performed according to the manufacturer's instruction (CellTiter 96® AQueous One Solution Cell Proliferation Assay, Promega). […]

`CC(=O)OC1C(C)OC(OC2C(C)OC(OC(=O)[C@]34CCC(C)(C)CC3C3=CCC5[C@@]6(C)CC[C@H](OC7OC(C(=O)O)C(O)C(OC8OCC(O)C(O)C8O)C7OC7OC(CO)C(O)C(O)C7O)[C@@](C)(/C=N/NC(=O)CCCCCN7C(=O)C=CC7=O)C6CC[C@@]5(C)[C@]3(C)C[C@H]4O)C(OC3OC(C)C(OC4OCC(O)C(OC5OC(CO)C(O)C(O)C5O)C4O)C(O)C3O)C2O)C(O)C1OC1OCC(O)C(O)C1O` (stereo partly shown) [SO1861-EMCH] was tested, and the “cytoplasmic delivery of npSaporin / cell killing” value was “strongly enhanced the cytoplasmic delivery of npSaporin”.
